The text below walks through data of EP2450062A1, “HYDROCOLLOID PLASTERS, INCLUDING VIABLE PROBIOTIC STRAINS OF LACTOBACILLUS SPP. AND USED FOR VARIOUS TYPES OF WOUNDS, INFECTED TISSUES, DRY WOUNDS AND DEEP WOUNDS” (Universidad De Concepcion, priority 2009, dated 2011).

The test system of this assay is Lactobacillus acidophilus LPV 31. The experiment in a line: bactericidal effect of glutaraldehyde in the films (bacterial counts). The following applies: GA concentrations studied, in gelatin films. From the text:
The cross-linking agent used is preferably, but not exclusively, glutaraldehyde (GA), due to its high efficiency stabilising collagen derivatives, its high reaction rate, and its ability to modify the physico-chemical properties of gelatin-based gels.

As for `O=CCCCC=O` [GA, glutaraldehyde], the bactericidal effect result was “do not have an observable bactericidal effect”.
